Results taken from US11759412B2, “Personal care compositions with glutathione precursor comprising 4-substituted resorcinols and amino acids” (Conopco, Inc., priority 2016, dated 2023).

How the values were obtained:
Type in all cases: cell-based
Aged Human Keratinocytes = assay: Glutathione Assay (total glutathione, GSH-GSSG Glo, menadione challenge); conditions: for synergistic increase in GSH synthesis, combination with GAP amino acids vs either alone: resorcinol/test reagent combined with GAP, + menadione
Protocol: Aged Human Keratinocytes (Cascade Biologics, now ThermoFisher Scientific, Waltham, Mass.) were maintained in Epi Life® medium containing 60 uM calcium chloride and 1% Human Keratinocyte Growth Supplement (both media components from ThermoFisher Scientific) in a humidified incubator with an atmosphere containing 5% CO2 at 37° C. The medium was refreshed every 2-3 days. Subsequently, cells were trypsinized at 90% confluency and seeded at a density of 1×10^4 per well into 96-well plates with white wall and clear bottom. One or two days after seeding, cell medium was replaced with Hank's Balanced Salt Solution (HBSS), and keratinocytes were pre-treated with GAP (or 0.12-0.240 mM sodium hydroxide vehicle control, pH 7.5) alone or in combination with additional test reagents described above or L-cystine esters alone for 1-2 hours. The concentration of all amino acids constituting the GAP mixture used in this assay are designated in the data tables, and fully described in the abbreviations list below.
After one or two hours of pre-treatment with GAP or additional test reagents, alone or in combination, keratinocytes were then challenged with 25 uM menadione (Sigma-Aldrich), a known inducer of oxidative stress. After 18-20 hours, cells were harvested and analyzed for total glutathione levels using a commercially available kit (GSH-GSSG GLo Assay, Promega), a luminescence-based system for the detection and quantification of total glutathione in cultured cells. In summary, after cell treatment, the media was removed and replaced with a cell lysis reagent for 5 minutes at 20-25° C.; note, all remaining steps were also conducted at 20-25° C. Next, a luciferase generation reagent was added to each well and incubated for 30 minutes. Following this step, a luciferin detection reagent was added to each well and plates were incubated for 15 minutes. Finally, plates were then read for luminescence in a FlexStation 3 plate reader (Molecular Devices). Total glutathione levels were calculated after interpolation of glutathione concentrations from a standard curve. Experimental conditions were typically conducted in at least triplicate determinations. Statistical significance was calculated using 1-way ANOVA. Percent protection was calculated by using the calculated glutathione levels from each experiment in the following equation: […]

Human Keratinocytes [1] = assay: Reactive Oxygen Species (ROS) Assay (CellROX green, menadione)
Protocol: Human Keratinocytes (Promocell, Heidelberg, Germany) were maintained in EpiLife® keratinocyte medium containing 60 uM calcium chloride and 1% Human Keratinocyte Growth Supplement (HKGS) in a humidified incubator with an atmosphere containing 5% CO2 at 37° C. The medium was refreshed every other day. Subsequently, cells were trypsinized at 90% confluency and seeded at a density of 1-2×10^4 per well into 96-well plates with black wall and clear bottom. On the second day after seeding, cell medium was replaced with Hank's Balanced Salt Solution (HBSS) with or without menadione (10-25 uM), GAP (typically at 49 uM pyroglutamic acid, 60 uM cystine, 194 uM glycine), GAP vehicle (0.2 mM NaOH, pH 7.5), above-described additional test reagents, or combinations of GAP with additional test reagents or L-cystine esters alone, and incubated for additional 18 hours. For ROS detection, CellROX green (Life Tech, Thermo Fisher Scientific, Rockford, USA) reagent was added into each well to a final concentration of 15-25 uM and incubated for additional 2-4 hours at 37° C. in a humidified incubator. The ROS fluorescence was detected using a Tecan microplate reader (Excitation/Emission=490/525). Relative ROS production was calculated with normalization based on the vehicle control treatment which was set to 100%. Where indicated, percent protection was calculated as a comparison to menadione alone treatment, using the measured relative fluorescent units in the following equation: […]
ROS levels were evaluated together with cell viability because it is possible to get a false negative for ROS if treatment is so toxic, that at the time of assay, cells are dead (and there are no longer any detectable ROS). Decrease in ROS levels is meaningful if cells are still viable.

Human Keratinocytes [2] = assay: Cell Viability Assay (CCK-8, menadione); conditions: for cell viability (% vehicle of control): Table 3B
Protocol: Human Keratinocytes (Promocell, Heidelberg, Germany) were maintained in EpiLife® keratinocyte medium containing 60 uM calcium chloride and 1% Human Keratinocyte Growth Supplement (HKGS). The medium was refreshed every other day. Subsequently, cells were trypsinized at 90% confluency and seeded at a density of 2×10^4 per well into 96-well transparent tissue culture plates. On the second day after seeding, cell medium was replaced with treatments as described above in ROS assay section. After 18 hours, […] (CCK-8) reagent (Dojindo, Kumamoto, Japan) was diluted 1:10 in HBSS and incubated with cells for 4 h at 37° C. in a humidified incubator. Optical absorption at 450 nm was measured using a Tecan Safire2 plate reader. Relative viability was calculated with normalization based on the vehicle control treatment, which was set to 100%.
Where indicated, percent protection was calculated as a comparison to menadione alone treatment, using the measured relative absorbance units in the following equation: […]

[3] = Table 2B, resorcinol (BR or IPR) 10 uM + menadione
[4] = Table 2B, resorcinol (BR or IPR) 50 uM + menadione
[5] = Table 2B, resorcinol (BR or IPR) 100 uM + menadione
[6] = Table 1H, CDME 20 uM + menadione
[7] = Table 1H, CDME 40 uM + menadione
[8] = Table 1H, CDME 80 uM + menadione
[9] = Table 1H, CDME 160 uM + menadione
[10] = Table 1F, DTBC 20 uM + menadione
[11] = Table 3A, Olivetol or 3-hydroxytyrosol 10 uM + menadione
[12] = Table 3A, Olivetol or 3-hydroxytyrosol 20 uM + menadione
[13] = Table 3A, Olivetol or 3-hydroxytyrosol 50 uM + menadione

CC(C)c1ccc(O)cc1O [IPR, 4-isopropylresorcinol]
% Protection (improvement vs. vehicle control + menadione) (Aged Human Keratinocytes; [3]): 6% | Glutathione Synthesis, Mean (uM glutathione) (Aged Human Keratinocytes; [3]): 0.12 µM | % Protection (improvement vs. vehicle control + menadione) (Aged Human Keratinocytes; [4]): 6% | Glutathione Synthesis, Mean (uM glutathione) (Aged Human Keratinocytes; [4]): 0.12 µM | % Protection (improvement vs. vehicle control + menadione) (Aged Human Keratinocytes; [5]): 8% | Glutathione Synthesis, Mean (uM glutathione) (Aged Human Keratinocytes; [5]): 0.16 µM | synergistic increase in GSH synthesis, combination with GAP amino acids vs either alone (Aged Human Keratinocytes): synergistic increase

COC(=O)[C@@H](N)CSSC[C@H](N)C(=O)OC.Cl.Cl [CDME, L-Cystine dimethyl ester dihydrochloride]
% Protection (improvement vs. vehicle control + menadione), ROS (Human Keratinocytes [1]; [6]): 18.2^2% | ROS production (% of vehicle control) (Human Keratinocytes [1]; [6]): 107.8^2% | % Protection (improvement vs. vehicle control + menadione), ROS (Human Keratinocytes [1]; [7]): 15.5^1,2% | ROS production (% of vehicle control) (Human Keratinocytes [1]; [7]): 111.3^1,2% | % Protection (improvement vs. vehicle control + menadione), ROS (Human Keratinocytes [1]; [8]): 13.3^1,2% | ROS production (% of vehicle control) (Human Keratinocytes [1]; [8]): 114.3^1,2% | % Protection (improvement vs. vehicle control + menadione), ROS (Human Keratinocytes [1]; [9]): 25.7^2% | ROS production (% of vehicle control) (Human Keratinocytes [1]; [9]): 97.9^2% | % protection (improvement vs. vehicle control + menadione), cell viability (Human Keratinocytes [2]; [6]): 30.2^1,2% | Cell viability (% of vehicle control) (Human Keratinocytes [2]; [6]): 90.9^1,2% | % protection (improvement vs. vehicle control + menadione), cell viability (Human Keratinocytes [2]; [7]): 33.4^1,2% | Cell viability (% of vehicle control) (Human Keratinocytes [2]; [7]): 93.1^1,2% | % protection (improvement vs. vehicle control + menadione), cell viability (Human Keratinocytes [2]; [8]): 24.6^1,2% | Cell viability (% of vehicle control) (Human Keratinocytes [2]; [8]): 87.0^1,2% | % protection (improvement vs. vehicle control + menadione), cell viability (Human Keratinocytes [2]; [9]): 51.7^1,2% | Cell viability (% of vehicle control) (Human Keratinocytes [2]; [9]): 105.9^1,2%

CC(C)(C)OC(=O)[C@@H](N)CSSC[C@H](N)C(=O)OC(C)(C)C.Cl.Cl [DTBC, Ditert-butyl L-cystinate dihydrochloride]
% Protection (improvement vs. vehicle control + menadione), ROS (Human Keratinocytes [1]; [10]): 2.2% | % protection (improvement vs. vehicle control + menadione), cell viability (Human Keratinocytes [2]; [10]): 6.0^1% | % protection (improvement vs. vehicle control + menadione), cell viability (Human Keratinocytes [2]; Table 1F, DTBC 40 uM + menadione): 3.0^1% | % protection (improvement vs. vehicle control + menadione), cell viability (Human Keratinocytes [2]; Table 1F, DTBC 80 uM + menadione): −0.1^1%

CCCCCc1cc(O)cc(O)c1 [Olivetol, 5-pentylresorcinol]
% Protection (improvement vs vehicle control + menadione) (Aged Human Keratinocytes; [11]): −1% | Glutathione Synthesis, Mean (uM glutathione) (Aged Human Keratinocytes; [11]): 0.14 µM | % Protection (improvement vs vehicle control + menadione) (Aged Human Keratinocytes; [12]): −1% | Glutathione Synthesis, Mean (uM glutathione) (Aged Human Keratinocytes; [12]): 0.13 µM | % Protection (improvement vs vehicle control + menadione) (Aged Human Keratinocytes; [13]): −2% | Glutathione Synthesis, Mean (uM glutathione) (Aged Human Keratinocytes; [13]): 0.11 µM | synergistic increase in GSH synthesis, combination with GAP amino acids vs either alone (Aged Human Keratinocytes): did not result

OCCc1ccc(O)c(O)c1 [3-hydroxytyrosol]
% Protection (improvement vs vehicle control + menadione) (Aged Human Keratinocytes; [11]): −3% | Glutathione Synthesis, Mean (uM glutathione) (Aged Human Keratinocytes; [11]): 0.07 µM | % Protection (improvement vs vehicle control + menadione) (Aged Human Keratinocytes; [12]): −5% | Glutathione Synthesis, Mean (uM glutathione) (Aged Human Keratinocytes; [12]): 0.03 µM | % Protection (improvement vs vehicle control + menadione) (Aged Human Keratinocytes; [13]): −4% | Glutathione Synthesis, Mean (uM glutathione) (Aged Human Keratinocytes; [13]): 0.04 µM | synergistic increase in GSH synthesis, combination with GAP amino acids vs either alone (Aged Human Keratinocytes): no synergistic effect | ROS production (% of vehicle control) (Human Keratinocytes [1]; Table 3B, 3-hydroxytyrosol 10 uM + menadione): 241.6% | ROS production (% of vehicle control) (Human Keratinocytes [1]; Table 3B, 3-hydroxytyrosol 20 uM + menadione): 229.9^1% | synergistic decrease in ROS production, combination with GAP amino acids vs either alone (Human Keratinocytes [1]; resorcinol/test reagent combined with GAP, + menadione): no synergistic effect | cell viability (% vehicle of control) (Human Keratinocytes [2]; 3-hydroxytyrosol 10 uM + menadione): 16.8% | cell viability (% vehicle of control) (Human Keratinocytes [2]; 3-hydroxytyrosol 20 uM + menadione): 16.5%
